pEC50, pIC50: −log10 of the molar value. Where two headings read alike, the source gives them in different places.
How the values were obtained:
HCV genotype 1b replicon = assay: HCV replicon assay, genotype 1b replicon EC50; type: cell-based, Hepatitis C virus; conditions: Hepatitis C virus, read-out: EC50 [gt-1b]
Summary of the method: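 Assay format: compound titration on stable replicon cells, no G418 during treatment, 24 to 48 hours. Lysates were assayed for replicon RNA (hybridization/protection or TaqMan) or luciferase; EC50 fitted to four parameters against DMSO.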

[1] = biological target: HCV NS3/4A protease genotype 1b (Hepatitis C virus genotype 1b, UniProt P26663); assay: HCV NS3/4A protease time-resolved fluorescence (TRF) assay, Ki against genotype 1b; type: biochemical; conditions: for pIC50: IC50 [gt-1b], NS3/4A protease TRF assay, genotype 1b enzyme 0.2 nM; for IC50: IC50 [gt-1b] (nM), NS3/4A genotype 1b, enzyme 0.2 nM
Summary of the method: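 Ki values come from IC50 fits corrected for substrate concentration and KM. The time-resolved fluorescence protease reaction used 25 nM peptide substrate, 2.5 h, room temperature, pH 7.5 HEPES buffer, after 30 min enzyme–inhibitor preincubation.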

HCV NS3/4A protease genotype 1b, sequence (P26663 1027-1657): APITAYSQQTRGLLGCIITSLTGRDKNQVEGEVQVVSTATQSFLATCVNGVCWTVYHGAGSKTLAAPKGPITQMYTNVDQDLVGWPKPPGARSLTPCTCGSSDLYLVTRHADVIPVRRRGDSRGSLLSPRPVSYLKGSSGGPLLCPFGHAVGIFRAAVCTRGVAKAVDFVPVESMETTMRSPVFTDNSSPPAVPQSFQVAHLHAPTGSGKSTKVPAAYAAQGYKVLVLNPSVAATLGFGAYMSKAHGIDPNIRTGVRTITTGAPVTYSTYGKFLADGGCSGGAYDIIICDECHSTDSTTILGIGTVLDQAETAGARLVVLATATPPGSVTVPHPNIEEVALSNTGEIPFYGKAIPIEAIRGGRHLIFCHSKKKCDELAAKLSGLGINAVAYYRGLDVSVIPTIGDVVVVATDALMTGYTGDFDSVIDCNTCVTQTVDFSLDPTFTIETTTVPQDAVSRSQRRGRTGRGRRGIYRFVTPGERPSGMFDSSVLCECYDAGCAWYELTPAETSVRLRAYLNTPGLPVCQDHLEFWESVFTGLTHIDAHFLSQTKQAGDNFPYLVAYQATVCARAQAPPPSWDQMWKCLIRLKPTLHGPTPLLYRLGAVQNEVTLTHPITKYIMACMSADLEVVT
HCV NS3/4A protease genotype 1b, sequence (P26663 1658-1711): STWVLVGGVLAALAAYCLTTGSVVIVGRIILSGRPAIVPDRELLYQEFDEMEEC

Cc1nc2cc(F)ccc2c2c1OC1(CC2F)C[C@H]2C(=O)N[C@]3(C(=O)NS(=O)(=O)C4(C)CC4)C[C@H]3/C=C\CCCCC[C@H](NC(=O)OC(C)(C)C)C(=O)N2C1 (stereo partly drawn) [Example 464, tert-butyl [(6S,12Z,13aS,14aR,16aS)-1′,8′-difluoro-5′-methyl-14a-{[(1-methylcyclopropyl)sulfonyl]carbamoyl}-5,16-dioxo-1,1′,2′,5,6,7,8,9,10,11,13a,14,14a,15,16,16a-hexadecahydrospiro[cyclopropa[e]pyrrolo[1,2-a][1,4]diazacyclopentadecine-2,3′-pyrano[2,3-c]quinolin]-6-yl]carbamate]
pEC50 (HCV genotype 1b replicon; HCV replicon, genotype 1b): 7.82 | pIC50 [1]: 8.99

Cc1nc2c(C(F)(F)F)cccc2c2c1O[C@]1(CC2)C[C@H]2C(=O)N[C@]3(C(=O)NS(=O)(=O)C4CC4)C[C@H]3/C=C\CCCCC[C@H](NC(=O)OC(C)(C)C)C(=O)N2C1 [Example 95, tert-butyl [(2R,6S,12Z,13aS,14aR,16aS)-14a-[(cyclopropylsulfonyl)carbamoyl]-5′-methyl-5,16-dioxo-7′-(trifluoromethyl)-1,1′,2′,5,6,7,8,9,10,11,13a,14,14a,15,16,16a-hexadecahydrospiro[cyclopropa[e]pyrrolo[1,2-a][1,4]diazacyclopentadecine-2,3′-pyrano[2,3-c]quinolin]-6-yl]carbamate]
pEC50 (HCV genotype 1b replicon; genotype 1b replicon): 8.28 | IC50 [1]: 0.993 nM

Cc1ccc2nc(C(F)(F)F)c3c(c2c1)CC[C@]1(C[C@H]2C(=O)N[C@]4(C(=O)NS(=O)(=O)C5(C)CC5)C[C@H]4/C=C\CCCCC[C@H](NC(=O)OC(C)(C)C)C(=O)N2C1)O3 [Example 389, tert-butyl [(2R,6S,12Z,13aS,14aR,16aS)-9′-methyl-14a-{[(1-methylcyclopropyl)sulfonyl]carbamoyl}-5,16-dioxo-5′-(trifluoromethyl)-1,1′,2′,5,6,7,8,9,10,11,13a,14,14a,15,16,16a-hexadecahydrospiro[cyclopropa[e]pyrrolo[1,2-a][1,4]diazacyclopentadecine-2,3′-pyrano[2,3-c]quinolin]-6-yl]carbamate]
pEC50 (HCV genotype 1b replicon; HCV replicon, genotype 1b): 8.58 | pIC50 [1]: 10.96

Cc1nc2ccccc2c2c1O[C@]1(CC2)C[C@H]2C(=O)N[C@]3(C(=O)NS(=O)(=O)C4(C)CC4)C[C@H]3/C=C\CCCCC[C@H](NC(=O)OCC(C)(C)C)C(=O)N2C1 [Example 130, 2,2-dimethylpropyl [(2R,6S,12Z,13aS,14aR,16aS)-5′-methyl-14a-{[(1-methylcyclopropyl)sulfonyl]carbamoyl}-5,16-dioxo-1,1′,2′,5,6,7,8,9,10,11,13a,14,14a,15,16,16a-hexadecahydrospiro[cyclopropa[e]pyrrolo[1,2-a][1,4]diazacyclopentadecine-2,3′-pyrano[2,3-c]quinolin]-6-yl]carbamate]
pEC50 (HCV genotype 1b replicon; genotype 1b replicon): 8.71 | IC50 [1]: 0.01 nM

Cc1ccc2nc(C(F)(F)F)c3c(c2c1)CC[C@]1(C[C@H]2C(=O)N[C@]4(C(=O)NS(=O)(=O)C5(C)CC5)C[C@H]4/C=C\CCCCC[C@H](NC(=O)OCCN4CCCCC4)C(=O)N2C1)O3 [Example 417, 2-(piperidin-1-yl)ethyl [(2R,6S,12Z,13aS,14aR,16aS)-9′-methyl-14a-{[(1-methylcyclopropyl)sulfonyl]carbamoyl}-5,16-dioxo-5′-(trifluoromethyl)-1,1′,2′,5,6,7,8,9,10,11,13a,14,14a,15,16,16a-hexadecahydrospiro[cyclopropa[e]pyrrolo[1,2-a][1,4]diazacyclopentadecine-2,3′-pyrano[2,3-c]quinolin]-6-yl]carbamate]
pEC50 (HCV genotype 1b replicon; HCV replicon, genotype 1b): 7.34 | pIC50 [1]: 10.03

CCc1nc2ccc(OCCN3CCOCC3)cc2c2c1O[C@]1(CC2)C[C@H]2C(=O)N[C@]3(C(=O)NS(=O)(=O)C4(C)CC4)C[C@H]3/C=C\CCCCC[C@H](NC(=O)O[C@@H](C)C(C)C)C(=O)N2C1 [Example 519, (2S)-3-methylbutan-2-yl {(2R,6S,12Z,13aS,14aR,16aS)-5′-ethyl-14a-{[(1-methylcyclopropyl)sulfonyl]carbamoyl}-9′-[2-(morpholin-4-yl)ethoxy]-5,16-dioxo-1,1′,2′,5,6,7,8,9,10,11,13a,14,14a,15,16,16a-hexadecahydrospiro[cyclopropa[e]pyrrolo[1,2-a][1,4]diazacyclopentadecine-2,3′-pyrano[2,3-c]quinolin]-6-yl}carbamate]
pEC50 (HCV genotype 1b replicon; HCV replicon, genotype 1b, HCl salt): 9.27 | pIC50 ([1]; HCl salt): 11.05

COc1ccc2nc(C3CC3)c3c(c2c1)C(F)(F)C[C@]1(C[C@H]2C(=O)N[C@]4(C(=O)NS(=O)(=O)C5(C)CC5)C[C@H]4/C=C\CCCCC[C@H](NC(=O)O[C@H](C)C(C)C)C(=O)N2C1)O3 [Example 249, (2R)-3-methylbutan-2-yl [(2S,6S,12Z,13aS,14aR,16aS)-5′-cyclopropyl-1′,1′-difluoro-9′-methoxy-14a-{[(1-methylcyclopropyl)sulfonyl]carbamoyl}-5,16-dioxo-1,1′,2′,5,6,7,8,9,10,11,13a,14,14a,15,16,16a-hexadecahydrospiro[cyclopropa[e]pyrrolo[1,2-a][1,4]diazacyclopentadecine-2,3′-pyrano[2,3-c]quinolin]-6-yl]carbamate]
pEC50 (HCV genotype 1b replicon; genotype 1b replicon, K+ salt): 7.84 | IC50 ([1]; K+ salt): 0.02 nM

COc1ccc2nc(C)c3c(c2c1)CC[C@]1(C[C@H]2C(=O)N[C@]4(C(=O)NS(=O)(=O)C5(C)CC5)C[C@H]4/C=C\CCCCC[C@H](NC(=O)OC4CCCC4C)C(=O)N2C1)O3 (stereo partly drawn) [Example 200, 2-methylcyclopentyl [(2R,6S,12Z,13aS,14aR,16aS)-9′-methoxy-5′-methyl-14a-{[(1-methylcyclopropyl)sulfonyl]carbamoyl}-5,16-dioxo-1,1′,2′,5,6,7,8,9,10,11,13a,14,14a,15,16,16a-hexadecahydrospiro[cyclopropa[e]pyrrolo[1,2-a][1,4]diazacyclopentadecine-2,3′-pyrano[2,3-c]quinolin]-6-yl]carbamate]
pEC50 (HCV genotype 1b replicon; genotype 1b replicon, K+ salt): 9.43 | IC50 ([1]; K+ salt): 0.005 nM

CCOC(=O)N[C@H]1CCCCC/C=C\[C@@H]2C[C@@]2(C(=O)NS(=O)(=O)C2(C)CC2)NC(=O)[C@@H]2C[C@]3(CCc4c(c(C5CC5)nc5cc(OC)ccc45)O3)CN2C1=O [Example 138, ethyl [(2R,6S,12Z,13aS,14aR,16aS)-5′-cyclopropyl-8′-methoxy-14a-{[(1-methylcyclopropyl)sulfonyl]carbamoyl}-5,16-dioxo-1,1′,2′,5,6,7,8,9,10,11,13a,14,14a,15,16,16a-hexadecahydrospiro[cyclopropa[e]pyrrolo[1,2-a][1,4]diazacyclopentadecine-2,3′-pyrano[2,3-c]quinolin]-6-yl]carbamate]
pEC50 (HCV genotype 1b replicon; genotype 1b replicon): 8.60 | IC50 [1]: 0.043 nM

Cc1nc2ccc(F)cc2c2c1O[C@]1(CC2)C[C@H]2C(=O)N[C@]3(C(=O)NS(=O)(=O)C4(C)CC4)C[C@H]3/C=C\CCCCC[C@H](NC(=O)OCC(C)C)C(=O)N2C1 [Example 218, 2-methylpropyl [(2R,6S,12Z,13aS,14aR,16aS)-9′-fluoro-5′-methyl-14a-{[(1-methylcyclopropyl)sulfonyl]carbamoyl}-5,16-dioxo-1,1′,2′,5,6,7,8,9,10,11,13a,14,14a,15,16,16a-hexadecahydrospiro[cyclopropa[e]pyrrolo[1,2-a][1,4]diazacyclopentadecine-2,3′-pyrano[2,3-c]quinolin]-6-yl]carbamate]
pEC50 (HCV genotype 1b replicon; genotype 1b replicon): 8.67 | IC50 [1]: 0.005 nM

Cc1nc2ccccc2c2c1O[C@@]1(C[C@H]3C(=O)N[C@]4(C(=O)NS(=O)(=O)C5(C)CC5)C[C@H]4/C=C\CCCCC[C@H](NC(=O)OC(C)(C)C)C(=O)N3C1)CC2(F)F [Example 25, tert-Butyl (2S,6S,13aS,14aR,16aS,Z)-1′,1′-difluoro-5′-methyl-14a-(1-methylcyclopropylsulfonylcarbamoyl)-5,16-dioxo-1′,2′,3,5,6,7,8,9,10,11,13a,14,14a,15,16,16a-hexadecahydro-1H-spiro[cyclopropa[e]pyrrolo[1,2-a][1,4]diazacyclopentadecine-2,3′-pyrano[2,3-c]quinoline]-6-ylcarbamate]
pEC50 (HCV genotype 1b replicon; genotype 1b replicon): 8.95 | IC50 [1]: 0.016 nM

COc1ccc2nc(C(F)F)c3c(c2c1)CC[C@]1(C[C@H]2C(=O)N[C@]4(C(=O)NS(=O)(=O)C5(C)CC5)C[C@H]4/C=C\CCCCC[C@H](NC(=O)O[C@@H](C)C(C)C)C(=O)N2C1)O3 [Example 442, (2S)-3-methylbutan-2-yl [(2R,6S,12Z,13aS,14aR,16aS)-5′-(difluoromethyl)-9′-methoxy-14a-{[(1-methylcyclopropyl)sulfonyl]carbamoyl}-5,16-dioxo-1,1′,2′,5,6,7,8,9,10,11,13a,14,14a,15,16,16a-hexadecahydrospiro[cyclopropa[e]pyrrolo[1,2-a][1,4]diazacyclopentadecine-2,3′-pyrano[2,3-c]quinolin]-6-yl]carbamate]
pEC50 (HCV genotype 1b replicon; HCV replicon, genotype 1b, K+ salt): 8.78 | pIC50 ([1]; K+ salt): 10.62
